Results: publication PMC5543065, “Mechanistic and structural basis for activation of cardiac myosin force production by omecamtiv mecarbil” (Nature Communications, 2017)

Molecular target: T1, bovine β-cardiac myosin S1 fragment (cardiac myosin, MYH7) (Bos taurus, UniProt Q9BE39)
T1 construct: Subfragment-1 (S1), AA 1–840; with MYL3 (Uniprot P85100)
Experiment: ITC; crystal structure at […] Å; SAXS
Format: binding
Conditions: read-out: Nucleotide state / ADP-VO4 (n = 5)

T1 sequence (Q9BE39 1-840): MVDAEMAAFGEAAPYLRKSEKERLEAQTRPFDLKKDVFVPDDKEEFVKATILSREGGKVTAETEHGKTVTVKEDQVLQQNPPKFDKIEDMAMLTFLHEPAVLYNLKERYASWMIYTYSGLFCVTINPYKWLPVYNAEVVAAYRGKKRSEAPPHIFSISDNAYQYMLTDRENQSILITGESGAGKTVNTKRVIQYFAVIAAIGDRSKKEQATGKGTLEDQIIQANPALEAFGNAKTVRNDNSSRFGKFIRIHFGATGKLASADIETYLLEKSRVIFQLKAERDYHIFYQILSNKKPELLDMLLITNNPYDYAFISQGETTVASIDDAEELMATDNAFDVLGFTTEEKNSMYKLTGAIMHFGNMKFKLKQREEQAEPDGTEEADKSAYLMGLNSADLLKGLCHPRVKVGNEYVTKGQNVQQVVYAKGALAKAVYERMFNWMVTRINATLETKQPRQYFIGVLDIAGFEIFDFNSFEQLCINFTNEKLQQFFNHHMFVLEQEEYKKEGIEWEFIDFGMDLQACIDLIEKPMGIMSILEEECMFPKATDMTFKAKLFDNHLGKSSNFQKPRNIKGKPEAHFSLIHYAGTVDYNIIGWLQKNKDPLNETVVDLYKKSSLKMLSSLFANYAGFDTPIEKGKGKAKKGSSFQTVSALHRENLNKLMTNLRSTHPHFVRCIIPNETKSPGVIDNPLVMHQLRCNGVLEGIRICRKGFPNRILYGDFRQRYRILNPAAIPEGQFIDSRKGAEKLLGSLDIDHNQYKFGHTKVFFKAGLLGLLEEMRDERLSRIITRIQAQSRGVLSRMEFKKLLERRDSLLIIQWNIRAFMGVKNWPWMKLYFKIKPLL
T1 sequence (P85100 2-199 partner): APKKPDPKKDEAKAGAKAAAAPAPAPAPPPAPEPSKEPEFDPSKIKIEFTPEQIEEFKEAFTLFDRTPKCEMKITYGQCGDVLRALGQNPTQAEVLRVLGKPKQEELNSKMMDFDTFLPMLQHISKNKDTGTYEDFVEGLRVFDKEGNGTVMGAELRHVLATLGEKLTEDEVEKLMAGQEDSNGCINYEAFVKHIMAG

## COC(=O)N1CCN(Cc2cccc(NC(=O)Nc3ccc(C)nc3)c2F)CC1 [OM, Omecamtiv mecarbil]
  Kd: 290 ± 40 nM
